This assay can be described thus: In vitro inhibitory potency was measured against phenylethanolamine N-methyl-transferase.

This passage reports IC50 results from BindingDB's records for doi:10.1021/jm00179a007 (1980).

pIC50: −log10 of the molar value.

The compound `NCc1cccc(Cl)c1` [(3-chlorophenyl)methanamine] had a pIC50 of 5.05.

Compound `CC(N)Cc1ccc(Cl)cc1` (configuration not stated) [para-chloroamphetamine] gave a pIC50 of 3.52.
